The test system of series [1] is trypsin, chymotrypsin and elastase. In words: Metabolic stability in pancreatic enzyme mix (ESMS, SIM of the molecular ion). The series is classed as in vitro ADME. Conditions: stability after 24 h at 37° C. in trypsin, 100 mM ammoniumbicarbonate pH 8.0, enzyme:substrate approx. 1:5 (w/w). The protocol: (§1) Compounds of formula I may be evaluated for their metabolic stability.
(§2) Compounds were dissolved at a concentration of 1 μg/μl in water. 25 μl of this solution is added to 175 μl of the respective enzyme-solution (resulting in an enzyme:substrate ratio (w/w) of approximately 1:5). The solution is left at 37° C. overnight. 10 μl of the various degradation solutions is analyzed against a corresponding zero-sample using flow injection electrospray mass spectrometry (ESMS) with selected ion monitoring of the molecular ion. If the signal has decreased more than 20% compared to the zero-sample, the remainder of the solution is analyzed by HPLC and mass spectrometry in order to identify the extent and site(s) of degradation precisely.
(§3) Several standard peptides (ACTH 4-10, Angiotensin 1-14 and Glucagon) have been included in the stability tests in order to verify the ability of the various solutions to degrade peptides.
(§4) Enzymes (trypsin, chymotrypsin, elastase aminopeptidase M and carboxypeptidase Y and B) were all purchased from Boehringer Mannheim GmbH (Mannheim, Germany)
Pancreatic enzyme mix: trypsin, chymotrypsin and elastase in 100 mM ammoniumbicarbonate pH 8.0 (all concentrations 0.025 μg/μl).
(§5) Quantification of the compounds (before and after degradation) was done on the API III instrument using single ion monitoring of the molecular ion in question with flow injection of the analyte. […]

The next series relates to carboxypeptidase Y and B. In words: Metabolic stability in carboxypeptidase mix (ESMS, SIM of the molecular ion). It counts as in vitro ADME. Conditions: stability after 24 h at 37° C. in carboxypeptidase Y and B, 50 mM ammoniumacetate pH 4.5; enzyme:substrate approx. 1:5 (w/w). On the procedure: as §1, §2, §3, §4
Carboxypeptidase mix: carboxypeptidase Y and B in 50 mM ammoniumacetate pH 4.5 (all concentrations 0.025 μg/μl).
as §5

Where a name gives a salt, the structure may show the parent alone.

For orientation: melting point means the temperature, or range, at which the solid turns liquid. Compound `Cc1noc([C@@H](Cc2ccccc2)NC(=O)[C@@H](Cc2ccc3ccccc3c2)NC(=O)c2cccc(CN)c2)n1` (as salt: salt) gave a melting point of 240 to 241 °C.
Regarding `Cc1noc([C@@H](Cc2ccccc2)NC(=O)[C@@H](Cc2ccc3ccccc3c2)NC(=O)[C@@H]2CCCNC2)n1` (stereo in doubt) (as salt: salt), the melting point is 198 to 200 °C.
On the same count and under the same terms, with `Cc1noc([C@@H](Cc2ccccc2)NC(=O)C(Cc2ccc3ccccc3c2)NC(=O)/C=C/C(C)(C)N)n1` (stereo in doubt) (as salt: salt) the figure was 161 to 167 °C; with `Cc1noc([C@@H](Cc2ccccc2)NC(=O)[C@@H](Cc2ccc3ccccc3c2)NC(=O)C2CCNCC2)n1` (stereo in doubt) (as salt: salt), 238 to 241 °C.
With Glucagon, the Pan. enzyme mix result in series [1] is recorded as “− (Unstable (more than 20% decrease in SIM signal after 24 h in degradation solution))”. Further, the Carboxy-peptidase mix result in the series on carboxypeptidase Y and B was “− (Unstable (more than 20% decrease in SIM signal after 24 h in degradation solution))”.

The record behind these values is patent US6350767B1, “Compounds with growth hormone releasing properties” (Novo Nordisk A/S, priority 1995, dated 2002).
